Legend:
[1] = Caco-2 bidirectional assay (A-B and B-A) to study the effect of piperine (P-gp inhibitor) on the permeability; assay type: in vitro ADME; details: human
Procedure: (§1) Caco-2 cells were cultured in MEM media with 10% serum and seeded at a density of 75000 cells per mL and cultured for 21 days in a 24-well trans-well plate at 37° C., 5% CO2. The monolayer integrity was checked intermittently (Day 0-21) using Trans Epithelial Electric Resistance (TEER). Cells were treated with drugs as follows:
(§2) 2) Bidirectional Assay (A-B and B-A) to Study the Effect of Piperine (P-Gp Inhibitor) on the Permeability
(§3) For A-B, 400 μL samples were added to the wells as per the plate setup to the apical side in duplicates with 800 μL HBSS pH 7.4 in the basal wells. Samples were collected at 60, 90 and 120 minutes from the basal side. Mass balance samples at 0 and 120 minutes were collected from the apical side.
(§4) For B-A, 800 μL of the respective dilutions were added to the basal side in duplicates with 400 μL HBSS pH 7.4 in the apical wells. Samples were collected at 60, 90 and 120 minutes from the apical side. Mass balance samples at 0 and 120 minutes were collected from the basal side. The sample were analyzed on LCMS-MS.
(§5) At the end of the experiment the monolayer integrity was checked using and Lucifer yellow, calculating the % rejection of Lucifer yellow by incubating cells with 100 μg/mL Lucifer.
(§6) The apparent permeability (Papp) in units per second can be calculated by using the following equation,
(§7) For Lucifer yellow, % Lucifer Yellow Passage=[RFU(test)−RFU(blank)/RFU(equilibrium)−RFU(blank)]*100

Caco-2 cells = test: as above; assay type: in vitro ADME; details: across the caco-2 monolayer; conclusion in words
Procedure: as §1, §2, §3, §4, §5, §6, §7

[2] = Digoxin 10 μM, Caco-2 monolayer, HBSS pH 7.4

efflux ratio at 120 min, 10 μM ([1]; Caco-2, pH 7.4, Digoxin 10 μM, Papp B-A/Papp A-B) | Papp A→B at 120 min, 10 μM [1, 2] | Papp B→A at 120 min, 10 μM [1, 2] | Papp A→B at 120 min, 30 μM ([1]; Caco-2, pH 7.4) | Papp B→A at 120 min, 30 μM ([1]; Caco-2, pH 7.4) | Permeability classification (Caco-2 cells) | Structure (SMILES)
12 | 0.829 ×10⁻⁶ cm/s | 9.97 ×10⁻⁶ cm/s | – | – | – | C[C@H]1O[C@@H](O[C@H]2[C@@H](O)C[C@H](O[C@H]3[C@@H](O)C[C@H](O[C@H]4CC[C@@]5(C)[C@H](CC[C@@H]6[C@@H]5C[C@@H](O)[C@]5(C)[C@@H](C7=CC(=O)OC7)CC[C@]65O)C4)O[C@@H]3C)O[C@@H]2C)C[C@H](O)[C@@H]1O [Digoxin]
– | – | – | 1.08 ×10⁻⁶ cm/s | 6.17 ×10⁻⁶ cm/s | high | CO[C@H]1/C=C/O[C@@]2(C)Oc3c(C)c(O)c4c(O)c(c5c(nc6cc(C)ccn65)c4c3C2=O)NC(=O)/C(C)=C\C=C\[C@H](C)[C@H](O)[C@@H](C)[C@@H](O)[C@@H](C)[C@H](OC(C)=O)[C@@H]1C [Rifaximin, [(2S,16Z,18E,20S,21S,22R,23R,24R,25S,26S,27S,28E)-5,6,21,23,25-pentahydroxy-27-methoxy-2,4,11,16,20,22,24,26-octamethyl-2,7 (epoxypentadeca-[1,11,13]trienimino)benzofuro[4,5-e]pyrido[1,2-a]-benzimidazole 1,15(2H)-dione,25-acetate]]
